{
  "source": "patent US20240226076A1",
  "about": "“Inhibitors of Tryptases and Their Use in Treating Allergies” (The Board of Trustees of the Leland Stanford Junior …, priority 2021, published 2024)",
  "key": {"KLKB1": {"biological_target": "T1, KLKB1 (Homo sapiens, UniProt P03952)", "T1 construct": "purchased Reaction Biology Corp", "T1 sequence (P03952 20-638)": "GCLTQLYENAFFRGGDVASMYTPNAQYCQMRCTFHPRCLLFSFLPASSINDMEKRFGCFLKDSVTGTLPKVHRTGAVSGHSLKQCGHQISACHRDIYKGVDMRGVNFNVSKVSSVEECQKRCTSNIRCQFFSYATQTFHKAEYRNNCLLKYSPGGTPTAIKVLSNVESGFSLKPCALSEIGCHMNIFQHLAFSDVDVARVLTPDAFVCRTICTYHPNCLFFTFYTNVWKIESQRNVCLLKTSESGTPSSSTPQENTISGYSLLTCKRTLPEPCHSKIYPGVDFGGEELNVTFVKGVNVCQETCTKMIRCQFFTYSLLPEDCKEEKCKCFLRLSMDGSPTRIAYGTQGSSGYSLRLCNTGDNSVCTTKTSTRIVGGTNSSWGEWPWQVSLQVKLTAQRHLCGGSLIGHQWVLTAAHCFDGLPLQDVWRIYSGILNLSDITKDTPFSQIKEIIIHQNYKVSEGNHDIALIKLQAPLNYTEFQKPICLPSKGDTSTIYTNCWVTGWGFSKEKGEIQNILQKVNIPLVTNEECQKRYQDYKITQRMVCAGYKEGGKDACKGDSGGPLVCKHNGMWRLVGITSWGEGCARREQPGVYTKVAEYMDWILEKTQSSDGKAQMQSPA", "test": "Protease activity array (Reaction Biology Corp), KLKB1", "format": "biochemical", "experimental": "(§1) Avoralstat can inhibit Tryptase-b2 and -g1 as well as it inhibits KLKB1 in vitro. Avoralstat was assessed for inhibition against a panel of recombinant proteases including 2 Tryptases (Tryptase-b2 and -g1) and KLKB1 by commercial services from Reaction Biology Corp. The Reaction Biology Corp profile tested in a 10-dose IC50, with a dose range from 38 pM to 10 μM, against 70 proteases in FIG. 1E.\n(§2) Protease activity array. […] The protease activities were monitored as a time-course measurement of the increase in fluorescence signal from fluorescently labeled peptide substrate, and initial linear portion of slope (signal/min) was analyzed."}, "Tryptase-b2": {"biological_target": "T2, Tryptase-b2 (Homo sapiens, UniProt P20231)", "T2 construct": "purchased Reaction Biology Corp", "T2 sequence (P20231 31-275)": "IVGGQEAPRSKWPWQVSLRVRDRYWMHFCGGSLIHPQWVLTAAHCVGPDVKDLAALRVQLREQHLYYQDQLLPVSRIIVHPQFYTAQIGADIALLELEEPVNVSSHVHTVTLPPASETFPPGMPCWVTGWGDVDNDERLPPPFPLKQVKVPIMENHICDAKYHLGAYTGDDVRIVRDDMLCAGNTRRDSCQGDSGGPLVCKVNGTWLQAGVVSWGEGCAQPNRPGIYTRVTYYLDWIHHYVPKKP", "test": "Protease activity array (Reaction Biology Corp), Tryptase-b2", "format": "biochemical", "experimental": "as §1, §2"}, "Tryptase-g1": {"biological_target": "T3, Tryptase-g1 (Homo sapiens, UniProt Q9NRR2)", "T3 construct": "purchased Reaction Biology Corp", "T3 sequence (Q9NRR2 20-321)": "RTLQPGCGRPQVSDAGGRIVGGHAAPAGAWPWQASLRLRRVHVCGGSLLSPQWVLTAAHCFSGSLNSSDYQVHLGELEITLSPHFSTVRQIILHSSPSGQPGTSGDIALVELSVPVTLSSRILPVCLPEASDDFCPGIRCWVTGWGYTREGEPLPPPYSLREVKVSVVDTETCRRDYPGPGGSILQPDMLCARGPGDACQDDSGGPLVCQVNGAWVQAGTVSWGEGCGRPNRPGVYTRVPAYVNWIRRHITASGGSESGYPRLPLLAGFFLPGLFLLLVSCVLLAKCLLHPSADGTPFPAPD", "test": "Protease activity array (Reaction Biology Corp), Tryptase-g1", "format": "biochemical", "experimental": "as §1, §2"}, "Kallikrein-12": {"biological_target": "T4, Kallikrein-12 (Homo sapiens, UniProt Q9UKR0)", "T4 construct": "purchased Reaction Biology Corp", "T4 sequence (Q9UKR0 18-248)": "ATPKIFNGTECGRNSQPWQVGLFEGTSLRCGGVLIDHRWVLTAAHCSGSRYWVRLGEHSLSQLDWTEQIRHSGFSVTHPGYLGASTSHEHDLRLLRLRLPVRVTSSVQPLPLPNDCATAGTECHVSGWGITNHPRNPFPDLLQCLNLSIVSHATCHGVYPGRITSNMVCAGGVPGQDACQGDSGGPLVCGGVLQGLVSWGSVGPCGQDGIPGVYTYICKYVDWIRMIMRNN", "test": "Protease activity array (Reaction Biology Corp), Kallikrein-12", "format": "biochemical", "conditions": "recombinant protease, 10-dose IC50, fluorescently labeled peptide substrate", "experimental": "as §1, §2"}, "Kallikrein-14": {"biological_target": "T5, Kallikrein-14 (Homo sapiens, UniProt Q9P0G3)", "T5 construct": "purchased Reaction Biology Corp", "T5 sequence (Q9P0G3 25-251)": "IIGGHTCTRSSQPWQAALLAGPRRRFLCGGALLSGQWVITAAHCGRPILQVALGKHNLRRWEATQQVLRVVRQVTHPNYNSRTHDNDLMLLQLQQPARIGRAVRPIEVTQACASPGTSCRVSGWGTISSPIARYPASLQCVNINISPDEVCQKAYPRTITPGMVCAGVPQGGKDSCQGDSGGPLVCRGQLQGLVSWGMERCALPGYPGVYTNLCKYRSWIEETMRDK", "test": "Protease activity array (Reaction Biology Corp), Kallikrein-14", "format": "biochemical", "conditions": "recombinant protease, 10-dose IC50, fluorescently labeled peptide substrate", "experimental": "as §1, §2"}, "[1]": {"conditions": "oral drug, phase III clinical trials for hereditary angioedema; cited from earlier work"}},
  "note": "pIC50: −log10 of the molar value.",
  "data": [
    {"smiles": "C=Cc1cc(C(=O)Nc2ccc(C(=N)N)cc2)c(-c2ccc(C(=O)NCC3CC3)nc2C(=O)O)cc1OC", "note": "[Avoralstat]", "values": [
      {"measurement": "pIC50", "setting": "KLKB1", "result": 9.89},
      {"measurement": "pIC50", "setting": "Tryptase-b2", "result": 9.00},
      {"measurement": "pIC50", "setting": "Tryptase-g1", "result": 9.03},
      {"measurement": "inhibition", "setting": "Kallikrein-12", "result": "sub-nanomolar inhibition"},
      {"measurement": "inhibition", "setting": "Kallikrein-14", "result": "sub-nanomolar inhibition"},
      {"measurement": "clinical safety", "setting": "[1]", "result": "clinically proven to be safe"}
    ]}
  ]
}
